Test results from patent US10322143B2, “Inhibitors of ADAMTS4 or ADAMTS5 for use in preventing or treating cardiac remodeling and chronic heart failure” (Universitetet i Oslo, priority 2013, dated 2019).

How the values were obtained:
versican = test: Versican DPEEAE fragments and full-length versican in myocardial ECM fractions (immunoblotting), aortic banding rats; assay type: in vivo, rat
Experimental: (§1) Three days after AB, rats were stratified by the gradient over the stenosis to ensure similar degree of cardiac stress. Two and two stratified rats were randomized to either 6 mg/kg of the sulfated polysaccharide sodium pentosan polysulfate (PPS) (Interfarm AS, Norway) or vehicle (0.9% NaCl) injected subcutaneously every third day. […] Six weeks after AB or sham operation, the rats were examined by echocardiography and postmortem analysis, performed by experienced investigators (IS, JMA) blinded to treatment group.
Proteins from rat myocardium were extracted as previously described (Didangelos et al. J Biol Chem 2012. 287(23):19341-5). Briefly, proteins were separated into three fractions; NaCl-soluble extracellular proteins (NaCl-ECM) and guanidine-soluble extracellular proteins (G-ECM), containing the fluid and matrix compartment of ECM respectively, in addition to cellular and cell-linked proteins dissolvable in SDS (SDS-samples) (FIG. 6D). NaCl-ECM and G-ECM were deglycosylated to remove GAG chains using 4 mU/NaCl-sample and 12 mU/G-sample of Chondroitinase ABC (from Proteus vulgaris, G3667, Sigma-Aldrich, MO) and 5 mU/NaCl-sample and 15 mU/G-sample of keratanase (endo-β-galactosidase from Bacteroides fragilis, G6920, Sigma-Aldrich), as previously described (Didangelos A et al. supra).
Protein concentrations were measured using the Micro BCA Protein Assay Kit (Pierce/Thermo Scientific, IL). Sample buffer was mixed with 5-25 μg (G-samples) or 30 μg (NaCl and SDS samples) of the protein lysate, denatured at 96° C. for 10 min, and run on 1.5 mm 4-12% Bis-Tris gradient gels (Nupage, Invitrogen, CA), with MOPS SDS running buffer until the 37 kDa protein marker reached the bottom of the gel. All protein extracts were loaded blinded to group.
SDS-PAGE and immunoblotting was performed as described in the Criterion BioRad protocol, using polyvinylidene fluoride (PVDF) membranes (GE Healthcare Life Sciences, Uppsala, Sweden). Blots were developed using the ECL Plus Western Blotting Detection System (GE Healthcare) and visualized in the Las-4000 mini from Fujifilm (Japan). Before reprobing, stripping was performed using the Restore Western Blot Stripping Buffer (21059, Thermo Scientific, IL). […]
Membranes were blocked in 5% non-fat dry-milk (170-6404, BioRad) overnight. […] Primary antibodies used were against ADAMTS4 (PA1-1750, Thermo Pierce Scientific, IL), versican full length (sc-25831, Santa Cruz Biotechnology, CA) and versican fragments displaying the neo-epitope DPEEAE (ab19345, Abcam, Cambrigde, UK) resulting from ADAMTS cleavage by ADAMTS1/4 (Sandy J D et al. J Biol Chem 2001. 276(16):13372-8; Didangelos A et al. supra), and quantified by ImageJ.

ADAMTS4 mRNA = test: Myocardial ADAMTS4 mRNA expression (qRT-PCR) in aortic banding rats; assay type: in vivo, rat; conditions: AB-rats treated with PPS, left ventricle, six weeks after AB; normalized to RPL4, relative to vehicle-treated sham; median (interquartile range)
Experimental: as §1
In addition, mRNA levels of proteins known to modulate ADAMTS activity or versican function were measured; tissue inhibitor of metalloprotease (TIMP)-3, hyaluronic acid (HA) synthase 1 and 2, and membrane-type (MT)4-MMP, while mRNA levels of ADAMTS1, -4, and versican were quantified in NFB and NCM.
Total RNA was isolated from the left ventricle in AB rats, neonatal rat cardiomyocytes and fibroblasts (RNeasy mini kit, Qiagen, Valencia, Calif.). […] The results were detected on an ABI PRISM 7900 Sequence Detection System (Applied Biosystems, CA).

[1] = PPS-treated AB-rats, normalized to control, median (interquartile range)

With pentosan polysulfate [PPS] the “change of p150 versican in NaCl-ECM compared to vehicle-treated AB-rats” value (versican; PPS-treated AB-rats vs vehicle-treated AB-rats, p=0.05) was “halved”, the “level of full-length versican (p400) in G-ECM” value (versican; [1]) was 1.17 (0.77-6.85) and the “level of p150 versican DPEEAE fragment in NaCl-ECM” value (versican; [1]) was 1.08 (0.69-1.63). For the same substance, the “p70 versican fragment level in G-ECM” value (versican; PPS-treated sham, normalized to control, median (interquartile range)) was 0.34 (0.28-0.61) and the “ADAMTS4 mRNA level” value (ADAMTS4 mRNA) was 1.29 (1.00-6.45).
